In the supplement of paper PMC10307832:

Legend:
Test in all cases: relative viability (nuclei count vs DMSO), 5 days (fraction); higher = more cells survive
Neratinib = compound: CCOc1cc2ncc(C#N)c(Nc3ccc(OCc4ccccn4)c(Cl)c3)c2cc1NC(=O)/C=C/CN(C)C [Neratinib]
Procedure, shortened: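 Lung cancer cell lines received five library-drug doses (not always all listed) spaced by √10, pinned on vehicle-anchored 1536-well plates after an overnight stay at 37 °C. Five days later, with no medium change, nuclei were Hoechst-stained, imaged at 4× and counted with MetaXpress. Viability is treated-well nuclei relative to vehicle-well nuclei, as a median across plates. Passing plates had control CV below 25% and at least one doubling.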

Neratinib + OSI-027 = compound: CCOc1cc2ncc(C#N)c(Nc3ccc(OCc4ccccn4)c(Cl)c3)c2cc1NC(=O)/C=C/CN(C)C [Neratinib] + COc1cccc2cc(-c3nc([C@H]4CC[C@H](C(=O)O)CC4)n4ncnc(N)c34)[nH]c12 [OSI-027] (partner 0.5 µM)
Procedure, shortened: (§1)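 A single step with final 0.05% Triton X-100, 1% formaldehyde and 1 ug/ml Hoechst fixed the cells and stained nuclei 5 days after treatment. Lung cancer cell lines in 1536-well plates had been treated by pin tool the day after seeding with one drug alone or a fixed anchor-drug dose plus five library-drug doses (not always all listed) in √10 steps, and nuclei were counted on 4× images. Relative viability is the ratio of nuclei in treated wells to nuclei in vehicle wells, taken as the median of duplicate plates.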

Neratinib + Foretinib = compound: CCOc1cc2ncc(C#N)c(Nc3ccc(OCc4ccccn4)c(Cl)c3)c2cc1NC(=O)/C=C/CN(C)C [Neratinib] + COc1cc2c(Oc3ccc(NC(=O)C4(C(=O)Nc5ccc(F)cc5)CC4)cc3F)ccnc2cc1OCCCN1CCOCC1 [Foretinib] (partner 0.25 µM)
Procedure, shortened: as §1

Neratinib + Palbociclib = compound: CCOc1cc2ncc(C#N)c(Nc3ccc(OCc4ccccn4)c(Cl)c3)c2cc1NC(=O)/C=C/CN(C)C [Neratinib] + CC(=O)c1c(C)c2cnc(Nc3ccc(N4CCNCC4)cn3)nc2n(C2CCCC2)c1=O [Palbociclib] (partner 0.5 µM)
Procedure, shortened: as §1

| Cell Line | relative viability (Neratinib; 0.03162 µM) | relative viability (Neratinib; 0.1 µM) | relative viability (Neratinib; 0.3162 µM) | relative viability (Neratinib; 1 µM) | relative viability (Neratinib + OSI-027; first compound 0.01 µM) | relative viability (Neratinib + OSI-027; first compound 0.03162 µM) | relative viability (Neratinib + OSI-027; first compound 0.1 µM) | relative viability (Neratinib + OSI-027; first compound 0.3162 µM) | relative viability (Neratinib + OSI-027; first compound 1 µM) | relative viability (Neratinib + Foretinib; first compound 0.01 µM) | relative viability (Neratinib + Foretinib; first compound 0.03162 µM) | relative viability (Neratinib + Foretinib; first compound 0.1 µM) | relative viability (Neratinib + Foretinib; first compound 0.3162 µM) | relative viability (Neratinib + Foretinib; first compound 1 µM) | relative viability (Neratinib + Palbociclib; first compound 0.01 µM) | relative viability (Neratinib + Palbociclib; first compound 0.03162 µM) | relative viability (Neratinib + Palbociclib; first compound 0.1 µM) | relative viability (Neratinib + Palbociclib; first compound 0.3162 µM) | relative viability (Neratinib + Palbociclib; first compound 1 µM) | relative viability (Neratinib; 0.01 µM) |
| --- | --- | --- | --- | --- | --- | --- | --- | --- | --- | --- | --- | --- | --- | --- | --- | --- | --- | --- | --- | --- |
| NCI-H3122 | 1.02 | 0.931 | 0.991 | 0.5 | 1.03 | 0.987 | 0.9 | 0.9 | 0.154 | 1.05 | 0.985 | 0.94 | 0.958 | 0.171 | 0.205 | 0.208 | 0.188 | 0.181 | 0.148 |  |
| PC-3 [JPC-3] | 1.12 | 0.947 | 0.687 | 0.471 | 0.814 | 0.749 | 0.662 | 0.544 | 0.319 | 1.07 | 1.14 | 0.927 | 0.815 | 0.318 | 0.513 | 0.559 | 0.492 | 0.544 | 0.471 | 1.07 |
| PC-14 | 1.13 | 0.964 | 0.732 | 0.211 | 0.739 | 0.987 | 0.798 | 0.177 | 0.0699 | 1.04 | 0.973 | 0.862 | 0.929 | 0.335 | 0.625 | 0.672 | 0.474 | 0.0909 | 0.0675 | 1.1 |
| RERF-LC-KJ | 0.998 | 0.86 | 0.806 | 0.556 | 0.539 |  | 0.477 | 0.434 | 0.326 | 0.924 | 0.992 | 0.896 | 0.872 | 0.43 | 1.16 | 1.16 | 1.08 | 0.84 | 0.467 | 1 |
| SK-LU-1 | 1.2 |  | 0.979 | 0.46 | 0.373 | 0.384 | 0.305 | 0.238 | 0.135 | 0.917 | 0.938 | 0.816 | 0.46 | 0.302 | 0.389 | 0.447 | 0.376 | 0.373 | 0.288 | 1.1 |
| SK-MES-1 | 1.09 | 0.91 | 0.463 | 0.298 | 0.566 | 0.687 | 0.538 | 0.305 | 0.185 | 0.97 | 0.985 | 0.735 | 0.832 | 0.375 | 0.3 | 0.327 | 0.329 | 0.281 | 0.247 | 1.06 |
| SW 900 | 1.05 | 0.772 | 0.94 | 0.94 | 0.597 | 0.604 | 0.621 | 0.574 | 0.385 | 0.937 | 0.917 |  | 0.865 | 0.709 |  | 0.56 | 0.537 | 0.372 | 0.288 |  |
| SW 1573 | 1.18 | 0.828 | 0.912 | 0.716 | 0.685 | 0.595 | 0.542 | 0.544 | 0.276 | 1.15 | 0.894 | 0.941 | 0.97 | 0.722 | 0.382 | 0.422 | 0.428 | 0.289 | 0.217 | 1.09 |
| UMC-11 | 1.14 | 0.748 | 0.898 | 0.832 | 0.487 | 0.487 | 0.415 | 0.414 | 0.308 | 0.989 | 1.13 | 1.02 | 0.954 |  | 0.321 | 0.327 | 0.319 | 0.335 | 0.243 | 0.901 |
